In patent US20150094328A1, “4-Azaindole Derivatives” (Eisai R&D Management Co., Ltd., priority 2013, published 2015):

Target: T1, mAChR M1 (UniProt P11229)
T1 sequence (P11229 1-460): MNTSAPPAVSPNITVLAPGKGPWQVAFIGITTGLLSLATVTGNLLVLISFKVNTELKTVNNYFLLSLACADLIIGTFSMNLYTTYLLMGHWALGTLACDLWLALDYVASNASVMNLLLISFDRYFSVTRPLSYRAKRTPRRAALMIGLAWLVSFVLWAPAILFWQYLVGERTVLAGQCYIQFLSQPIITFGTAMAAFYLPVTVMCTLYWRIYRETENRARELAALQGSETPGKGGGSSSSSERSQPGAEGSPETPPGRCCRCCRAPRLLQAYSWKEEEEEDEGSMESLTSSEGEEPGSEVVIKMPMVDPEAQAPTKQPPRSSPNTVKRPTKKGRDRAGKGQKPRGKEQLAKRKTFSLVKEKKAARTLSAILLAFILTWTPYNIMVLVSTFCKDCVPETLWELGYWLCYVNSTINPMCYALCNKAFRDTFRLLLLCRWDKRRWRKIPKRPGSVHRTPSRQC
Test: In vitro cellular calcium flux assay, positive allosteric modulator mode, mAChR M1
Assay type: cell-based, human
Settings: PAM mode with EC20 carbachol, BHK cells expressing mAChR M1, Examples 76-80 and 82-89 tested in slightly modified procedure
Method: Baby hamster kidney cells stably expressing human or rat mAChR M1 to M5 were utilised for primary and selectivity profiling activities. mAChR M2 and M4 cell lines also stably expressed the chimeric Gαqi5 G-protein.
Human mAChR M1, M3, M5 and rat M1 cells were grown in low glucose Dulbecco's Modified Eagle's Medium (DMEM) medium plus heat inactivated 10% fetal bovine serum (HI FBS) and 500 μg/ml hygromycin B^1. Human mAChR M2 and M4 cells were maintained as above with^2 the addition of 500 μg/ml G418 to the media. Cells were maintained in culture at 37° C./5% CO2 and passaged twice weekly by treatment with 0.05% Trypsin/EDTA detachment solution, centrifugation (200 g, 5 min) and re-suspension in fresh media. Following cell expansion, cells were cryopreserved at −80° C. by treatment with 0.05% Trypsin/EDTA detachment solution, centrifugation (200 g, 5 min) and re-suspension of the pellet in freezing media (90% HI FBS/10% DMSO^3) at 15E6 cells/ml^4.
Prior to assaying, cells were prepared by thawing at 37° C. in a water bath, centrifugation (200 g, 5 min) and re-suspension of the pellet in fresh media. 15000 cells per well were seeded in black, clear bottomed 384-well Greiner Bio-One plates in plating medium (DMEM/10% HI FBS) and incubated overnight at 37C/5% CO2.
On the day of the assay, media was removed from each well and replaced with 500 assay buffer (HBSS with 20 mM HEPES and 2.5 mM Probenecid) containing the calcium indicator, Calcium 4 (Molecular Devices). Cells were then incubated at 37° C./5% CO2 for 30 min and at room temperature.
Compound preparation was carried out by generation of 11-point, 1 in 3 serial dilution concentration response curves in 100% DMSO. Compound was then diluted 1 in 65^6 with assay buffer (HBSS with 20 mM HEPES and 2.5 mM Probenecid) prior to the addition of 10 ul^7 to the cells using a Tetra fluorometric imaging plate reader (Molecular Devices)^8. Compound driven increases in intracellular calcium flux was measured as an increase in fluorescence (494Ex, 516Em)^9.
Following agonist data acquisition, cells were then incubated for a further 30 min at room temperature before either an EC20 concentration (to measure positive allosteric modulator activity) or an EC80 concentration (to measure antagonism) of carbachol was added using a fluorometric imaging plate reader. Positive allosteric modulator pEC50 values and antagonist pIC50 values for each compound were then determined. […] Data analysis was carried out using a 4 parameter logistic nonlinear regression model with the XLFIT (IDBS) excel add-in^10.
^1-10Examples 76-80 and 82-89 were tested in a slightly modified procedure. The points of modification and the alternate reagents, concentrations or equipment employed in these examples were: ^1200 μg/ml hygromycin B; ^2G418 not added; ^3CELLBANKER 1; ^410E6; ^540 μl; ^61 in 99; ^720 μl; ^8FDSS6000 (Hamamatsu Photonics); ^9(480Ex, 540Em); 10Spotfire (TIBCO).

Row | SMILES | pEC50 for positive allosteric modulation
1 | Cc1ccnc2c(C(=O)N[C@H]3CCOC[C@@H]3O)cn(Cc3ccc(F)cc3)c12 (single isomer, unassigned) [Example 82, 1-(4-Fluorobenzyl)-N-(trans-3-hydroxytetrahydro-2H-pyran-4-yl)-7-methyl-1H-pyrrolo[3,2-b]pyridine-3-carboxamide] | 7.8
2 | O=C(NC1CCCOC1)c1cn(Cc2ccc(-n3cccn3)cc2)c2cccnc12 (racemic) [Example 49, 1-(4-(1H-Pyrazol-1-yl)benzyl)-N-(tetrahydro-2H-pyran-3-yl)-1H-pyrrolo[3,2-b]pyridine-3-carboxamide] | 5.6
3 | COc1ccc(Cn2cc(C(=O)N[C@H]3CCOC[C@@H]3O)c3nccc(C)c32)cc1 (single isomer, unassigned) [Example 83, 1-(4-Methoxybenzyl)-N-(trans-3-hydroxytetrahydro-2H-pyran-4-yl)-7-methyl-1H-pyrrolo[3,2-b]pyridine-3-carboxamide] | 8.0
4 | O=C(N[C@@H]1CCCC[C@H]1O)c1cn(Cc2ccc(-c3ccc(F)cc3)cc2)c2cccnc12 (racemic) [Example 46, 1-((4′-Fluoro-[1,1′-biphenyl]-4-yl)methyl)-N-(trans-2-hydroxycyclohexyl)-1H-pyrrolo[3,2-b]pyridine-3-carboxamide] | 6.5
5 | N#Cc1ccnc2c(C(=O)N[C@H]3CCCC[C@@H]3O)cn(Cc3ccc(C(F)(F)F)cc3)c12 [Example 33, 7-Cyano-N-((1S,2S)-2-hydroxycyclohexyl)-1-(4-(trifluoromethyl)benzyl)-1H-pyrrolo[3,2-b]pyridine-3-carboxamide] | 7.0
6 | O=C(N[C@@H]1CCOC[C@H]1O)c1cn(Cc2cccc(F)c2)c2c(Cl)ccnc12 (single isomer, unassigned) [Example 86, 7-Chloro-1-(3-fluorobenzyl)-N-(trans-3-hydroxytetrahydro-2H-pyran-4-yl)-1H-pyrrolo[3,2-b]pyridine-3-carboxamide] | 7.6
7 | COc1ccc(Cn2cc(C(=O)N[C@H]3CCOC[C@@H]3O)c3nccc(C)c32)cc1F (single isomer, unassigned) [Example 84, 1-(3-Fluoro-4-methoxybenzyl)-N-(trans-3-hydroxytetrahydro-2H-pyran-4-yl)-7-methyl-1H-pyrrolo[3,2-b]pyridine-3-carboxamide] | 7.9
8 | COc1ccc(Cn2cc(C(=O)N[C@H]3CCOC[C@@H]3O)c3nccc(Cl)c32)cc1 (single isomer, unassigned) [Example 87, 7-Chloro-1-(4-methoxybenzyl)-N-(trans-3-hydroxytetrahydro-2H-pyran-4-yl)-1H-pyrrolo[3,2-b]pyridine-3-carboxamide] | 7.9
9 | O=C(N[C@H]1CCCCC[C@@H]1O)c1cn(Cc2ccc(F)cc2)c2cccnc12 (racemic) [Example 28, 1-(4-Fluorobenzyl)-N-(trans-2-hydroxycycloheptyl)-1H-pyrrolo[3,2-b]pyridine-3-carboxamide] | 6.6
10 | N#Cc1ccc2c(n1)c(C(=O)N[C@H]1CCCC[C@@H]1O)cn2Cc1ccc(-n2cccn2)cc1 [Example 41, 1-(4-(1H-Pyrazol-1-yl)benzyl)-5-cyano-N-((1S,2S)-2-hydroxycyclohexyl)-1H-pyrrolo[3,2-b]pyridine-3-carboxamide] | 6.5
11 | COc1cc(Cn2cc(C(=O)N[C@H]3CCOC[C@@H]3O)c3nccc(C)c32)ccn1 (single isomer, unassigned) [Example 85, N-(trans-3-Hydroxytetrahydro-2H-pyran-4-yl)-1-((2-methoxypyridin-4-yl)methyl)-7-methyl-1H-pyrrolo[3,2-b]pyridine-3-carboxamide] | 7.3
12 | C[C@H]1COCC[C@@H]1NC(=O)c1cn(Cc2ccc(F)cc2)c2cccnc12 (racemic) [Example 19, 1-(4-Fluorobenzyl)-N-(trans-3-methyltetrahydro-2H-pyran-4-yl)-1H-pyrrolo[3,2-b]pyridine-3-carboxamide] | 6.0
13 | N#Cc1ccc(Cn2cc(C(=O)N[C@H]3CCCC[C@@H]3O)c3nccc(Cl)c32)cn1 [Example 70, 7-Chloro-1-((6-cyanopyridin-3-yl)methyl)-N-((1S,2S)-2-hydroxycyclohexyl)-1H-pyrrolo[3,2-b]pyridine-3-carboxamide] | 7.0
14 | C[C@H]1CCCC[C@@H]1NC(=O)c1cn(Cc2ccc(F)cc2)c2cccnc12 (racemic) [Example 20, 1-(4-Fluorobenzyl)-N-(trans-2-methylcyclohexyl)-1H-pyrrolo[3,2-b]pyridine-3-carboxamide] | 6.1
15 | O=C(N[C@@H]1CCC(F)(F)C[C@H]1O)c1cn(Cc2ccc(F)cc2)c2cccnc12 (single isomer, unassigned) [Example 35, N-(trans-4,4-Difluoro-2-hydroxycyclohexyl)-1-(4-fluorobenzyl)-1H-pyrrolo[3,2-b]pyridine-3-carboxamide] | 6.1
16 | O=C(N[C@H]1CCCC[C@@H]1O)c1cn(Cc2ccc(F)c(F)c2)c2cccnc12 [Example 94, 1-(3,4-difluorobenzyl)-N-((1S,2S)-2-hydroxycyclohexyl)-1H-pyrrolo[3,2-b]pyridine-3-carboxamide] | 6.6
17 | O=C(N[C@H]1CCCC[C@@H]1CO)c1cn(Cc2ccc(F)cc2)c2cccnc12 (racemic) [Example 18, 1-(4-Fluorobenzyl)-N-(trans-2-(hydroxymethyl)cyclohexyl)-1H-pyrrolo[3,2-b]pyridine-3-carboxamide] | 6.1
18 | O=C(N[C@H]1CCC[C@@H]1O)c1cn(Cc2ccc(F)cc2)c2cccnc12 (racemic) [Example 27, 1-(4-Fluorobenzyl)-N-(trans-2-hydroxycyclopentyl)-1H-pyrrolo[3,2-b]pyridine-3-carboxamide] | 6.1
19 | O=C(N[C@H]1CCC(F)(F)C[C@H]1O)c1cn(Cc2ccc(F)cc2)c2cccnc12 (single isomer, unassigned) [Example 36, N-(cis-4,4-Difluoro-2-hydroxycyclohexyl)-1-(4-fluorobenzyl)-1H-pyrrolo[3,2-b]pyridine-3-carboxamide] | 6.3
20 | Cn1cnc(-c2ccc(Cn3cc(C(=O)N[C@H]4CCCC[C@@H]4O)c4ncccc43)cc2)c1 [Example 43, N-((1S,2S)-2-Hydroxycyclohexyl)-1-(4-(1-methyl-1H-imidazol-4-yl)benzyl)-1H-pyrrolo[3,2-b]pyridine-3-carboxamide] | 8.0
